Assay results reported in patent publication US20050159599A1, “Cyclic compound, process for producing the same, and pest control agent” (priority 2002, published 2005).

How the values were obtained:
Assay type in all cases: in vivo
Spodoptera litura [1] = assay: Insecticidal effect for Spodoptera litura by spraying treatment to host crop (Test Example 2); settings: 100 ppm, sprayed on soybean, third-instar larvae of Spodoptera litura, fifth day after; for pest or weed control at 100 ppm: 120 h, read-out: rate of dead pests (%)
Method in brief: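 Soybean plants with fully developed primary leaves sprayed to runoff with 100 ppm compound (acetone/Tween 20, sticker water). Dried leaves given to ten third-instar larvae at 25° C.; survivors counted on day 5, mortality as dead/tested × 100.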

Plutella xylostella [2] = assay: Insecticidal effect for Plutella xylostella by immersion treatment of host crop root (Test Example 3); settings: 25 ppm, cabbage root immersed 5 days, ten second-instar larvae on stem and leaves, counted on the fifth day, 24° C.; for pest or weed control at 25 ppm: Plutella xylostella, 120 h, read-out: rate of dead pests (%)
Protocol: Insecticidal Effect for Plutella xylostella by Immersion Treatment of Host Crop Root
Roots of 4-leave stage cabbage was washed with tap water to remove soil, and then immersed in a pesticidal solution which was prepared by dissolving 5 mg of test compound (represented by the compound Nos. in the above Examples) in 0.5 ml of acetone containing Tween 20 (trade name) and then diluting it to the prescribed concentration (25 ppm) with ion-exchange water, and which was filled in a light-shielded Erlenmeyer flask (100 ml). On the fifth day after immersion of root, the root was cut off, and the stem and leaves were put into an ice cream cup (180 ml). Ten second-instar larvae of Plutella xylostella were set free therein, and the cup was left in a temperature-controlled breeding room (24° C.). On the fifth day after, the number of surviving Plutella xylostella was examined. The rate of dead pests was calculated by the following formula. rate of dead pests (%)=(number of dead pests/number of test pests)×100

Spodoptera litura [3] = assay: Insecticidal effect for Spodoptera litura by immersion treatment of host crop root (Test Example 4); settings: 25 ppm, soybean root immersion 5 days, second-instar larvae of Spodoptera litura, fifth day after; for pest or weed control at 25 ppm: 120 h, read-out: rate of dead pests (%)
Method in brief: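 Soil was washed from the roots of soybean plants at the primary-leaf stage, and the roots were immersed in a pesticidal solution held in a light-shielded 100 ml Erlenmeyer flask. The solution was made from acetone containing Tween 20, diluted with ion-exchange water. Five days after root immersion, two primary leaves were cut and placed in a 180 ml cup with ten second-instar Spodoptera litura larvae, then kept at 25° C. Survivors were counted five days later. The rate of dead pests (%) was calculated as dead pests divided by test pests, times 100.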

Plutella xylostella [4] = assay: Pest control effect for Plutella xylostella by plant seedling foot soil surface irrigation treatment, 24th day (Test Example 6); settings: 20 mg/plant; soil surface irrigation of cabbage; larvae counted on the 24th day
Protocol: Pest Control Effect for Plutella xylostella by Plant Seedling Foot Soil Surface Irrigation Treatment With Pesticidal Solution
A pesticidal solution which was prepared by dissolving 20 mg of test compound (represented by the compound Nos. in the above Examples) in 0.2 ml of acetone containing Tween 20 (trade name) and then diluting to 3 ml with ion-exchange water, was irrigated on the plant foot soil surface of 2.5-leave stage cabbage. This cabbage plant was transplanted to 1/5000a pot, and left in a facility wherein imagoes of Plutella xylostella were set free to lay eggs successively. On the 24th day after, the number of lavae on the plant was examined. The rate of pest control was calculated by the following formula. rate of pest control (%)=(1−number of pests in treated plant/number of pests in non-treated-plant)×100

Plutella xylostella [5] = assay: Insecticidal effect for Plutella xylostella by immersion treatment of host crop (Test Example 1); settings: cabbage leaf dipped, second-instar larvae of Plutella xylostella, fifth day after; for rate of dead pests (%): 100 ppm; for pest or weed control at 100 ppm: foliar, 120 h, read-out: rate of dead pests (%)
Protocol: Insecticidal Effect for Plutella xylostella by Immersion Treatment of Host Crop One true leaf of 7 to 8-leave stage cabbage was cut off and dipped in a pesticidal solution for a few seconds, which was prepared by dissolving 5 mg of test compound (represented by the compound Nos. in the above Examples) in 0.5 ml of acetone containing Tween 20 (trade name) and then diluting it to the prescribed concentration (100 ppm) with Dain (trade name, sticker) water diluted 5000-fold. After drying the pesticidal solution, the leaf was put into an ice cream cup (180 ml), and ten second-instar larvae of Plutella xylostella were set free therein. The cup was left in a temperature-controlled breeding room (24° C.). On the fifth day after, the number of surviving Plutella xylostella was examined. The rate of dead pests was calculated by the following formula. rate of dead pests (%)=(number of dead pests/number of test pests)×100

Tetranychus urticae = assay: Acaricidal effect for Tetranychus urticae (Test Example 5); settings: 100 ppm (table); spray on kidney bean with ten female imagoes; survivors counted on second and seventh day, 25° C.
Protocol: Acaricidal Effect for Tetranychus urticae
Ten female imagoes Tetranychus urticae were set free on a kidney bean wherein primary leaves had just developed. On the following day, a pesticidal solution, which was prepared by dissolving 5 mg of test compound (represented by the compound Nos. in the above Examples) in 0.5 ml of acetone containing Tween 20 ([…]) with Dain (trade name, sticker) water diluted 5000-fold, was sprayed with spray gun in the amounts wherein the pesticidal solution dripped. The kidney bean was left in a temperature-controlled breeding room (25° C.). On the second and seventh day after treatment, the number of surviving Tetranychus urticae was examined. The rate of decrease was calculated by the following formula. rate of decrease (%)=(1−(S2/(5.59×(10+(10+S1)/2+S1))))×100 In the above formula, • S1; the number of surviving imagoes on the second day after • S2; the number of surviving pests on the seventh day after […]

Structure (SMILES)	rate of dead pests (%) (Spodoptera litura [1])	rate of dead pests (%) (Plutella xylostella [5])	rate of decrease (%) (Tetranychus urticae)	also measured
O=C(c1c(F)cccc1F)N1COCN(c2cc(Cl)c(F)c(Cl)c2F)C1=O [I-4]	100			rate of dead pests (%) (Plutella xylostella [2]): 95%; rate of dead pests (%) (Spodoptera litura [3]): 100%; rate of pest control (%) (Plutella xylostella [4]): 92%
O=C(c1c(F)cccc1F)N1COCN(c2ccc(SC(F)(F)F)cc2)C1=O [I-25]		100		rate of pest control (%) (Plutella xylostella [4]): 88%
O=C(c1c(F)cccc1F)N1COCN(c2ccc([S+]([O-])C(F)(F)F)cc2)C1=O (stereo not shown) [I-26]	100	100		rate of dead pests (%) (Plutella xylostella [2]): 100%; rate of dead pests (%) (Spodoptera litura [3]): 100%; rate of pest control (%) (Plutella xylostella [4]): 100%
O=C(c1c(F)cccc1F)N1CSCN(c2cc(Cl)c(F)c(Cl)c2F)C1=O [II-10]	100	100		rate of dead pests (%) (Spodoptera litura [3]): 100%; rate of pest control (%) (Plutella xylostella [4]): 88%
CN1CN(C(=O)c2c(F)cccc2F)C(=O)N(c2ccc(Oc3ccc(C(F)(F)F)cc3Cl)cc2F)C1 [III-21]	100		99	
C=CCN1CN(C(=O)c2c(F)cccc2F)C(=O)N(c2ccc(Oc3ccc(C(F)(F)F)cc3Cl)cc2F)C1 [III-24]	100	100	95	
CC(C)N1CN(C(=O)c2c(F)cccc2F)C(=O)N(c2ccc(Oc3ccc(C(F)(F)F)cc3Cl)cc2F)C1 [III-25]	100	100	97	
O=C(c1c(F)cccc1F)N1CNCN(c2ccc(Oc3ccc(C(F)(F)F)cc3Cl)cc2F)C1=O [III-27, 1-[4-(2-chloro-4-trifluoromethylphenoxy)-2-fluorophenyl]-3-(2,6-difluorobenzoyl)tetrahydro-1,3,5-triazin-2(1H)-one]			96	pest or weed control at 100 ppm (Plutella xylostella [5]): 100%; pest or weed control at 100 ppm (Spodoptera litura [1]): 100%
COC(=O)SN1CN(C(=O)c2c(F)cccc2F)C(=O)N(c2ccc(Oc3ccc(C(F)(F)F)cc3Cl)cc2F)C1 [III-31]	100	100	99	
O=C(c1c(F)cccc1F)N1CN(S(=O)(=O)C(F)(F)F)CN(c2ccc(Oc3ccc(C(F)(F)F)cc3Cl)cc2F)C1=O [III-35]	100		97	
COC(=O)C(=O)N1CN(C(=O)c2c(F)cccc2F)C(=O)N(c2ccc(Oc3ccc(C(F)(F)F)cc3Cl)cc2F)C1 [III-37, Methyl 2-[3-[4-(2-chloro-4-trifluoromethylphenoxy)-2-fluorophenyl]-5-(2,6-difluorobenzoyl)hexahydro-4-oxo-1,3,5-triazin-1-yl]-2-oxoacetate]			97	pest or weed control at 100 ppm (Spodoptera litura [1]): 100%; pest or weed control at 25 ppm (Spodoptera litura [3]): 95%
O=C(O)C(=O)N1CN(C(=O)c2c(F)cccc2F)C(=O)N(c2ccc(Oc3ccc(C(F)(F)F)cc3Cl)cc2F)C1 [III-38, 2-[3-[4-(2-chloro-4-trifluoromethylphenoxy)-2-fluorophenyl]-5-(2,6-difluorobenzoyl)hexahydro-4-oxo-1,3,5-triazin-1-yl]-2-oxoacetic Acid]			98	pest or weed control at 100 ppm (Spodoptera litura [1]): 100%; pest or weed control at 25 ppm (Plutella xylostella [2]): 90%; pest or weed control at 25 ppm (Spodoptera litura [3]): 100%
O=C(OCc1ccccc1)C(=O)N1CN(C(=O)c2c(F)cccc2F)C(=O)N(c2ccc(Oc3ccc(C(F)(F)F)cc3Cl)cc2F)C1 [III-39, Benzyl 2-[3-[4-(2-chloro-4-trifluoromethylphenoxy)-2-fluorophenyl]-5-(2,6-difluorobenzoyl)hexahydro-4-oxo-1,3,5-triazin-1-yl]-2-oxoacetate]			97	pest or weed control at 100 ppm (Plutella xylostella [5]): 100%; pest or weed control at 100 ppm (Spodoptera litura [1]): 100%
NC(=O)C(=O)N1CN(C(=O)c2c(F)cccc2F)C(=O)N(c2ccc(Oc3ccc(C(F)(F)F)cc3Cl)cc2F)C1 [III-41]	100	100	97	
CNC(=O)C(=O)N1CN(C(=O)c2c(F)cccc2F)C(=O)N(c2ccc(Oc3ccc(C(F)(F)F)cc3Cl)cc2F)C1 [III-42]	100		98	
O=C(CBr)N1CN(C(=O)c2c(F)cccc2F)C(=O)N(c2ccc(Oc3ccc(C(F)(F)F)cc3Cl)cc2F)C1 [III-44]	100	100	96	
CSCC(=O)N1CN(C(=O)c2c(F)cccc2F)C(=O)N(c2ccc(Oc3ccc(C(F)(F)F)cc3Cl)cc2F)C1 [III-45]	100	100	100	
C[S+]([O-])CC(=O)N1CN(C(=O)c2c(F)cccc2F)C(=O)N(c2ccc(Oc3ccc(C(F)(F)F)cc3Cl)cc2F)C1 (stereo not shown) [III-46]			97	
CON(C)C(=O)C(=O)N1CN(C(=O)c2c(F)cccc2F)C(=O)N(c2ccc(Oc3ccc(C(F)(F)F)cc3Cl)cc2F)C1 [III-48]		100	95	
CONC(=O)C(=O)N1CN(C(=O)c2c(F)cccc2F)C(=O)N(c2ccc(Oc3ccc(C(F)(F)F)cc3Cl)cc2F)C1 [III-49]	100		96	rate of dead pests (%) (Spodoptera litura [3]): 95%
O=C(c1c(F)cccc1F)N1CNCN(c2ccc(SC(F)(F)C(F)Cl)cc2F)C1=O (stereo not shown) [III-78]	100	100		rate of pest control (%) (Plutella xylostella [4]): 83%
CN1CN(C(=O)c2c(F)cccc2F)C(=O)N(c2ccc([S+]([O-])C(F)(F)C(F)Cl)cc2F)C1 (stereo not shown) [III-84]	100	100		rate of pest control (%) (Plutella xylostella [4]): 100%
C#CCN1CN(C(=O)c2c(F)cccc2F)C(=O)N(c2ccc([S+]([O-])C(F)(F)C(F)Cl)cc2F)C1 (stereo not shown) [III-89]	100	100		rate of dead pests (%) (Plutella xylostella [2]): 100%; rate of pest control (%) (Plutella xylostella [4]): 92%
CN1CN(C(=O)c2c(F)cccc2F)C(=O)N(c2ccc([S+]([O-])C(F)F)cc2F)C1 (stereo not shown) [III-152, 1-(2,6-difluorobenzoyl)-3-[4-(difluoromethylsulfinyl)-2-fluorophenyl]-5-methyltetrahydro-1,3,5-triazin-2(1H)-one]				pest or weed control at 100 ppm (Plutella xylostella [5]): 100%; pest or weed control at 100 ppm (Spodoptera litura [1]): 100%; pest or weed control at 25 ppm (Plutella xylostella [2]): 100%; pest or weed control at 25 ppm (Spodoptera litura [3]): 100%
CC(=O)N1CN(C(=O)c2c(F)cccc2F)C(=O)N(c2ccc([S+]([O-])C(F)F)cc2F)C1 (stereo not shown) [III-153]	100	100		rate of dead pests (%) (Plutella xylostella [2]): 100%; rate of dead pests (%) (Spodoptera litura [3]): 100%
